This passage reports IC50 results from patent US8389533B2, “Gem-disubstituted and spirocyclic amino pyridines/pyrimidines as cell cycle inhibitors” (Amgen Inc., priority 2008, dated 2013).

One test deals with Cdk4/CyclinD1 (Homo sapiens, UniProt P11802). Kind of test: Cdk4 kinase inhibition assay (33P-ATP filter plate, Rb substrate). Type of test: biochemical. The note with it: recombinant Cdk4/CyclinD1, Rb substrate, 25 μM ATP, 1 hour room temperature; read-out: Cdk 4 IC50. As for the experimental part: (§1) The Cdk4 and Cdk6 inhibitory activity of the compounds is measured with a kinase inhibition assay using recombinant Cdk4/CyclinD1 or Cdk6/CyclinD3 protein complexes. The protein substrate used in the assay is the retinoblastoma protein (Rb). The kinase reactions are carried out in a 96-well filter plate (MSDV N6B50, Millipore). Compounds are serially diluted in kinase buffer (20 mM Tris-HCl, pH 7.4, 50 mM NaCl, 1 mM DTT, 1 mg/ml BSA) and added to the reaction mixture containing 2.5 ng/ml Cdk4/CyclinD1 or Cdk6/CyclinD3, 25 μM ATP, 10 μCi/ml [^33P]-ATP, 0.1 μg/ml Rb in the kinase buffer. The mixture is incubated at room temperature for 1 hour and the proteins precipitated with an equal volume of 20% TCA. The plates are washed with 10% TCA according to the manufacturer's instruction and dried at room temperature. The amount of the phosphorylated Rb is determined with a TopCount (PerkinElmer). The IC50 of a compound is determined by nonlinear regression curve fitting using software program Prism 5 (GraphPad Software).
Sequence of Cdk4/CyclinD1 (P11802 whole entry): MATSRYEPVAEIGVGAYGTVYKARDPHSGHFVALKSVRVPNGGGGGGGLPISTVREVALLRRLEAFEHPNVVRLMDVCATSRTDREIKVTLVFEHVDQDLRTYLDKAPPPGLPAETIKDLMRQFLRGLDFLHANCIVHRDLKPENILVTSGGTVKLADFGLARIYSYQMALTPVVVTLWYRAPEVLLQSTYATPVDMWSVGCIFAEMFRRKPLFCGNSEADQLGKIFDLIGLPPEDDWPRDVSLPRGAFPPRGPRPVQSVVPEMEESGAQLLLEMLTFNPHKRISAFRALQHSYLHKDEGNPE
Sequence of Cdk4/CyclinD1 (P24385 whole entry partner): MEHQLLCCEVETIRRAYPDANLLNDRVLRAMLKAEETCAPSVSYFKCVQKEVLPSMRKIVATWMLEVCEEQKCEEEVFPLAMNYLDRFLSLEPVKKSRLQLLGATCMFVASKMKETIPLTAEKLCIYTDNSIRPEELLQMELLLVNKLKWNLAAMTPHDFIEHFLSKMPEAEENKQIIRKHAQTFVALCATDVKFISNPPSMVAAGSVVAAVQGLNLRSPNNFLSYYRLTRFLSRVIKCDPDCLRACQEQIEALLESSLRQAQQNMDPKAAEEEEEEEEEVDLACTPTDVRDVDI

The target of the next test is Cdk6/CyclinD3 (Homo sapiens, UniProt Q00534). Kind of test: Cdk6 kinase inhibition assay (33P-ATP filter plate, Rb substrate). The test is classed as biochemical. As to conditions: recombinant Cdk6/CyclinD3, Rb substrate, 25 μM ATP, 1 hour room temperature; read-out: Cdk 6 IC50. As for the experimental part:
as §1

Sequence of Cdk6/CyclinD3 (Q00534 whole entry): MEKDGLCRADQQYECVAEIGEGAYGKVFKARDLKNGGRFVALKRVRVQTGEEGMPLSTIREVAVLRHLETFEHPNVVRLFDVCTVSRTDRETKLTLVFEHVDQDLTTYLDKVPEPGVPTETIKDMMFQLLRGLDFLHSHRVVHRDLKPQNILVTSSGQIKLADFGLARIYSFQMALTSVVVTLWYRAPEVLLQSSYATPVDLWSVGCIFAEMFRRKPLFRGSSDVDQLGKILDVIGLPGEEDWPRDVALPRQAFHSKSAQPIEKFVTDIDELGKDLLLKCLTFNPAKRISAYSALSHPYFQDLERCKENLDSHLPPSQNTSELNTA
Sequence of Cdk6/CyclinD3 (P30281 whole entry partner): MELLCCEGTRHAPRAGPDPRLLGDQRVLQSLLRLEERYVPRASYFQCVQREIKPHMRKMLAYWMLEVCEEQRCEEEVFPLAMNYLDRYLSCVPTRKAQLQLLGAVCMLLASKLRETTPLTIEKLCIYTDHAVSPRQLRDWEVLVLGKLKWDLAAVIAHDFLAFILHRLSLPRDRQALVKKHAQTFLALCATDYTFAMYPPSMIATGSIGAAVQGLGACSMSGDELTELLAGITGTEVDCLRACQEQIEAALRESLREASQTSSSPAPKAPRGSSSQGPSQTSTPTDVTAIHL

For orientation: IC50 means the midpoint of a concentration-inhibition curve. For the molecule `CC1(C)CCc2cnc(Nc3ccc(N4CCNCC4)cc3)nc21` [Example 49, 7,7-dimethyl-N-(4-(1-piperazinyl)phenyl)-6,7-dihydro-5H-cyclopenta[d]pyrimidin-2-amine], the IC50 on Cdk4/CyclinD1 amounted to 668 nM.
Regarding `c1ccc2c(c1)OC1(CCCC1)c1nc(Nc3ccc(N4CCNCC4)cn3)ncc1-2` [Example 15, N-(5-(1-piperazinyl)-2-pyridinyl)spiro[chromeno[3,4-d]pyrimidine-5,1′-cyclopentan]-3-amine], the IC50 at Cdk6/CyclinD3 was determined as 13.5 nM; on Cdk4/CyclinD1, 84 nM.
In the case of `CN(C)C1CCN(c2ccc(Nc3ncc4c(n3)C3(C=CC(C)(C)CC3)c3cnccc3-4)nn2)CC1` (racemic) [Example 76, (racemic)-4,4-dimethyl-N-(6-(4-(dimethylamino)piperidin-1-yl)-pyridazin-3-yl)spiro[cyclohex-2-ene-1,9′-pyrido[4′,3′:3,4]cyclopenta[1,2-d]pyrimidin]-2′-amine], the IC50 on Cdk6/CyclinD3 stood at 205 nM; on Cdk4/CyclinD1 it was 14.6 nM.
Taken in the same sequence, the figures for `CC1CC(O)C2(CC=CC2)c2nc(Nc3ccc(N4CCNCC4)cn3)ncc21` [Example 71, (7S)-5′-methyl-2′-((5-(1-piperazinyl)-2-pyridinyl)amino)-6′,7′-dihydro-5′H-spiro[cyclopent-3-ene-1,8′-quinazolin]-7′-ol] were 510 nM and 710 nM.
In the case of `OC1CCC2(CC1)Oc1ncccc1-c1cnc(Nc3ccc(N4CCNCC4)cn3)nc12` (mixture of isomers) [Example 40], the IC50 on Cdk6/CyclinD3 was 33 nM; at Cdk4/CyclinD1, 84 nM.
In the same order, the values of `c1cnc2c(c1)-c1cnc(Nc3ccc(N4CCNCC4)cc3)nc1C1(CCCCC1)O2` [Example 29, N-(4-(1-piperazinyl)phenyl)spiro[cyclohexane-1,5′-pyrido[3′,2′:5,6]pyrano[3,4-d]pyrimidin]-3′-amine] are 1.1 nM and 5.9 nM.
For the molecule `CC1(C)CC2(CCO1)Oc1ncccc1-c1cnc(Nc3ccc(N4CCNCC4)cc3)nc12` (racemic) [Example 35, (racemic)-2,2-dimethyl-N-(4-(1-piperazinyl)phenyl)-2,3,5,6-tetrahydrospiro[pyran-4,5′-pyrido[3′,2′:5,6]pyrano[3,4-d]pyrimidin]-3′-amine], the IC50 on Cdk6/CyclinD3 is 60 nM; at Cdk4/CyclinD1 it was 77 nM.
In the same order, the values of `O=C(c1csc(Nc2ncc3c(n2)C2(CCCCC2)c2cnccc2-3)n1)N1CCNCC1` [Example 48, N-(4-(1-piperazinylcarbonyl)-1,3-thiazol-2-yl)spiro[cyclohexane-1,9′-pyrido[4′,3′:3,4]cyclopenta[1,2-d]pyrimidin]-2′-amine] are 266 nM and 44 nM.
Taken in the same sequence, the figures for `CS(=O)(=O)c1cccc2c1OC1(CCCCC1)c1nc(Nc3ccc(N4CCNCC4)cn3)ncc1-2` [Example 23, 7-(methylsulfonyl)-N-(5-(1-piperazinyl)-2-pyridinyl)spiro[chromeno[3,4-d]pyrimidine-5,1′-cyclohexan]-3-amine] were 2620 nM and 2850 nM.
Take `CC1=CC(=O)C2(CCCC2)c2nc(Nc3ccc(N4CCNCC4)cn3)ncc21` [Example 73, 5′-methyl-2′-((5-(1-piperazinyl)-2-pyridinyl)amino)-7′H-spiro[cyclopentane-1,8′-quinazolin]-7′-one]: the IC50 on Cdk4/CyclinD1 was 2500 nM.
Turning to `c1cnc2c(c1)OC1(CCOCC1)c1nc(Nc3ccc(N4CCNCC4)cc3)ncc1-2` [Example 25, N-(4-(1-piperazinyl)phenyl)-2,3,5,6-tetrahydrospiro[pyran-4,6′-pyrido[2′,3′:5,6]pyrano[3,4-d]pyrimidin]-8′-amine], the IC50 stood at 540 nM at Cdk6/CyclinD3 and 330 nM at Cdk4/CyclinD1.
In the same order, the values of `CC1(C)CCC2(CC1)Oc1ncccc1-c1cnc(Nc3ccc(N4CCNCC4)cn3)nc12` [Example 27, 4,4-dimethyl-N-(5-(1-piperazinyl)-2-pyridinyl)spiro[cyclohexane-1,5′-pyrido[3′,3′:5,6]pyrano[3,4-d]pyrimidin]-3′-amine] are 68 nM and 74 nM.
For `c1cc2c(cn1)C1(CCOCC1)c1nc(Nc3ccc(N4CCNCC4)cn3)ncc1-2` [Example 63, N-(5-(1-piperazinyl)-2-pyridinyl)-2,3,5,6-tetrahydrospiro[pyran-4,9′-pyrido[4′,3′:3,4]cyclopenta[1,2-d]pyrimidin]-2′-amine], the concentration for half-maximal inhibition (IC50) on Cdk4/CyclinD1 amounted to 410 nM.
As to `C[C@@H]1CC(=O)C2(CC=CC2)c2nc(Nc3ccc(N4CCNCC4)cn3)ncc21` [Example 74, (5′R)-5′-methyl-2′-((5-(1-piperazinyl)-2-pyridinyl)amino)-5′,6′-dihydro-7′H-spiro[cyclopent-3-ene-1,8′-quinazolin]-7′-one], the IC50 worked out at 1800 nM at Cdk6/CyclinD3 and 3500 nM on Cdk4/CyclinD1.
In the same order, the values of `CN1CCN(c2ccc(Nc3ncc4c(n3)C3(CCCCC3)Oc3ccccc3-4)cc2)CC1` [Example 3, N-(4-(4-methyl-1-piperazinyl)phenyl)spiro[chromeno[3,4-d]pyrimidine-5,1′-cyclohexan]-3-amine] are 14.2 nM and 14.2 nM.
In the same order, the values of `CC1(C)C=CC2(CC1)c1cnccc1-c1cnc(Nc3ccc(N4CCNCC4)cc3)nc12` (racemic) [Example 44, (racemic)-4,4-dimethyl-N-(4-(1-piperazinyl)phenyl)spiro[cyclohex-2-ene-1,9′-pyrido[4′,3′:3,4]cyclopenta[1,2-d]pyrimidin]-2′-amine] are 27 nM and 0.8 nM.
On to `O=C1NC2(CCCCC2)c2nc(Nc3ccc(N4CCNCC4)cc3)ncc21` [Example 68, 2′-((4-(1-piperazinyl)phenyl)amino)spiro[cyclohexane-1,7′-pyrrolo[3,4-d]pyrimidin]-5′(6′H)-one], for which, on Cdk4/CyclinD1, the IC50 was determined as 1140 nM.
For the molecule `c1ccc2c(c1)-c1cnc(Nc3ccc(N4CCNCC4)cc3)nc1C21CCNCC1` [Example 50, N-(4-(1-piperazinyl)phenyl)spiro[indeno[2,1-d]pyrimidine-9,4′-piperidin]-2-amine], the IC50 is 81 nM on Cdk6/CyclinD3 and 56.2 nM at Cdk4/CyclinD1.
